Reference: ChEMBL document CHEMBL1144455, “A small molecule-kinase interaction map for clinical kinase inhibitors” (Nat Biotechnol, 2005)

Assays:
[1] = target: Mast/stem cell growth factor receptor Kit (Homo sapiens, UniProt P10721)
[2] = target: Serine/threonine-protein kinase pim-1 (Homo sapiens, UniProt P11309)
[3] = target: T1, Ephrin type-B receptor 1 (Homo sapiens, UniProt P54762)
T1 sequence (P54762 whole entry): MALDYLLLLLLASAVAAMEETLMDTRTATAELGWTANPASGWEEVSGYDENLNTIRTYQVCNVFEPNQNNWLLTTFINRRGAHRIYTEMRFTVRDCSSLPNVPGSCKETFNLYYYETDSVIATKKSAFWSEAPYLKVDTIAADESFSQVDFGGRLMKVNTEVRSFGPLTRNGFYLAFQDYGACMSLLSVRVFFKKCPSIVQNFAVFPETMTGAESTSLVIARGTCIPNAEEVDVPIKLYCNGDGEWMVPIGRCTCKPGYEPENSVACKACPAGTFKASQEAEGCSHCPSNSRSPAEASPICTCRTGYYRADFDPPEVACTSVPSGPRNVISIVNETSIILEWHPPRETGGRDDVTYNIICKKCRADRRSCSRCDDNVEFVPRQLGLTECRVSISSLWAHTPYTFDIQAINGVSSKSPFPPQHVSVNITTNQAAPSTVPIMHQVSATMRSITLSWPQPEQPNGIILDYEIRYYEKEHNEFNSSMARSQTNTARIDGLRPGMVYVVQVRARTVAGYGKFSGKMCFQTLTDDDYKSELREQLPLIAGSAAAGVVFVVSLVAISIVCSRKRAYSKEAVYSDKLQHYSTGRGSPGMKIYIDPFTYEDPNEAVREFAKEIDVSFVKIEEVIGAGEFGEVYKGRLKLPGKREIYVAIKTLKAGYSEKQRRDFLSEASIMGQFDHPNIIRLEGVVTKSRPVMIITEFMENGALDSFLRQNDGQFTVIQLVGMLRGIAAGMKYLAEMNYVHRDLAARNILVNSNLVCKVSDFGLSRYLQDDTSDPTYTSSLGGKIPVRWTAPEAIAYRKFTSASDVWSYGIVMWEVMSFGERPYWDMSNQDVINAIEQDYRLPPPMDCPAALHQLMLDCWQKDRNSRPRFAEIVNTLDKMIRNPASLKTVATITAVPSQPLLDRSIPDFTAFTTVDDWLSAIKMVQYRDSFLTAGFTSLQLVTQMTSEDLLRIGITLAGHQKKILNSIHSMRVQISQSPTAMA

[4] = target: T2, Serine/threonine-protein kinase Nek9 (Homo sapiens, UniProt Q8TD19)
T2 sequence (Q8TD19 whole entry): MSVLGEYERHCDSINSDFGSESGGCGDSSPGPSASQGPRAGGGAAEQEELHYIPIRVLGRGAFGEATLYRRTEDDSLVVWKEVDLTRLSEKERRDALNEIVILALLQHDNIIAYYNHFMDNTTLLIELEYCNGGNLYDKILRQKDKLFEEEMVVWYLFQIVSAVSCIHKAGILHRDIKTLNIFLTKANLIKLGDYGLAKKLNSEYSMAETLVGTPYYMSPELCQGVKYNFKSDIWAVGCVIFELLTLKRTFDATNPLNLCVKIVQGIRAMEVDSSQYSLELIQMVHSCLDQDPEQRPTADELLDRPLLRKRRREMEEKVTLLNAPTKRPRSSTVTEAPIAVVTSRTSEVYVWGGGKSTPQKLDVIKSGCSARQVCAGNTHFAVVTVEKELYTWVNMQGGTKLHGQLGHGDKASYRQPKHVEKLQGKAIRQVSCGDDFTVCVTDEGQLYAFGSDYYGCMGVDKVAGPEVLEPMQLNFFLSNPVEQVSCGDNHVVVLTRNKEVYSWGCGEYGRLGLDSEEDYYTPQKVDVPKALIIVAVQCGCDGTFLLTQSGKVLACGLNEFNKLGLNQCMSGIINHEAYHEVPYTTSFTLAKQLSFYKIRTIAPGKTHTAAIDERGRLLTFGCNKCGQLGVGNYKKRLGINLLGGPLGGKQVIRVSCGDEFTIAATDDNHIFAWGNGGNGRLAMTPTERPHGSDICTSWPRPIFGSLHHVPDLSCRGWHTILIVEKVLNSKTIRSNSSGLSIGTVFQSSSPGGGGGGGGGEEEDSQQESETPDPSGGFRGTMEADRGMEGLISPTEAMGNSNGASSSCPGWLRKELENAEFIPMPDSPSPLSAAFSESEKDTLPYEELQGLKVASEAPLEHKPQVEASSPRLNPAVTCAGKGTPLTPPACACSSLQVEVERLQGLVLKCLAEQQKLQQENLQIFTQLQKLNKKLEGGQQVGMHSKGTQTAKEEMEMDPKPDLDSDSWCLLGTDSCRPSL

[5] = target: Protein kinase C alpha type (Homo sapiens, UniProt P17252)
[6] = target: T3, Phosphorylase b kinase gamma catalytic chain, liver/testis isoform (Homo sapiens, UniProt P15735)
T3 sequence (P15735 whole entry): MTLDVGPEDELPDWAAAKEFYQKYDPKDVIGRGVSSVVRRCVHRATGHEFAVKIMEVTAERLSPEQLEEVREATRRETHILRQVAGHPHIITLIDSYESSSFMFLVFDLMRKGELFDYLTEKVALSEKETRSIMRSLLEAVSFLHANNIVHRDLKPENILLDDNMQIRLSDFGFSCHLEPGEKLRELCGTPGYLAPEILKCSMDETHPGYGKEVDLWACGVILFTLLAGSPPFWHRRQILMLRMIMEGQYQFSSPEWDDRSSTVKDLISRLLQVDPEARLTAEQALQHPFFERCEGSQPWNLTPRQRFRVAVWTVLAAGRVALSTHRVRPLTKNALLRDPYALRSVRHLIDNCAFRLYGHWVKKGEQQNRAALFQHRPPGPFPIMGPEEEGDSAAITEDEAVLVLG

[7] = target: Tyrosine-protein kinase JAK1 (Homo sapiens, UniProt P23458)
[8] = target: Ephrin type-A receptor 2 (Homo sapiens, UniProt P29317)
[9] = target: Tyrosine-protein kinase Yes (Homo sapiens, UniProt P07947)
[10] = target: Ribosomal protein S6 kinase alpha-3 (Homo sapiens, UniProt P51812)
[11] = target: Focal adhesion kinase 1 (Homo sapiens, UniProt Q05397)
[12] = target: Receptor tyrosine-protein kinase erbB-2 (Homo sapiens, UniProt P04626)
[13] = target: BMP-2-inducible protein kinase (Homo sapiens, UniProt Q9NSY1)
[14] = target: MAP kinase-interacting serine/threonine-protein kinase 2 (Homo sapiens, UniProt Q9HBH9)

Measured: Kd

Ephrin type-A receptor 2, sequence (P29317 whole entry): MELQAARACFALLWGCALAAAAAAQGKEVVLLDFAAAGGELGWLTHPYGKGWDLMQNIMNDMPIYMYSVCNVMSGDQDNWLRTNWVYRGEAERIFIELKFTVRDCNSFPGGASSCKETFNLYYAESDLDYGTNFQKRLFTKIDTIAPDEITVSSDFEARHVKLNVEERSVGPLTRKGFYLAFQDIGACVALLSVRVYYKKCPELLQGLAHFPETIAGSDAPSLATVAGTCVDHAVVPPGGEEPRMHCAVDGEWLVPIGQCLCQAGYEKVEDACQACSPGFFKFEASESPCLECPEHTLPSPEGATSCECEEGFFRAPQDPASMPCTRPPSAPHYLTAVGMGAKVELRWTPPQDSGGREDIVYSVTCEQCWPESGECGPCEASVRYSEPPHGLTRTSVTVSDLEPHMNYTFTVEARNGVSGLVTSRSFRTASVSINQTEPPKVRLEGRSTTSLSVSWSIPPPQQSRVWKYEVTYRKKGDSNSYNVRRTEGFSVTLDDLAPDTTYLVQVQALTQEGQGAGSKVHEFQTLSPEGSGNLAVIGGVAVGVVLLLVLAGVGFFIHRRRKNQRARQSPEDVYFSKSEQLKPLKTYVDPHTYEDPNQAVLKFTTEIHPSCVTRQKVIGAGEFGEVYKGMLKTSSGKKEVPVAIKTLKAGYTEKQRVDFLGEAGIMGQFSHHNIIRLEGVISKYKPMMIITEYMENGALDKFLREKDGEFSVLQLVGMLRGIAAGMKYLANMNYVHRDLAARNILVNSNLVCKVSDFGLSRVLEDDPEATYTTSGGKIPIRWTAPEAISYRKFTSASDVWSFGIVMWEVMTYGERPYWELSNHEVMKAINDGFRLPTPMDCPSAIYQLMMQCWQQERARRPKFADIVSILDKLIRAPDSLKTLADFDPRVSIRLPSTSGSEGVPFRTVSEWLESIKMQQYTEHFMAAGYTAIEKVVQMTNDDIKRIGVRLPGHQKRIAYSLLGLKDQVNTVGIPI
Mast/stem cell growth factor receptor Kit, sequence (P10721 whole entry): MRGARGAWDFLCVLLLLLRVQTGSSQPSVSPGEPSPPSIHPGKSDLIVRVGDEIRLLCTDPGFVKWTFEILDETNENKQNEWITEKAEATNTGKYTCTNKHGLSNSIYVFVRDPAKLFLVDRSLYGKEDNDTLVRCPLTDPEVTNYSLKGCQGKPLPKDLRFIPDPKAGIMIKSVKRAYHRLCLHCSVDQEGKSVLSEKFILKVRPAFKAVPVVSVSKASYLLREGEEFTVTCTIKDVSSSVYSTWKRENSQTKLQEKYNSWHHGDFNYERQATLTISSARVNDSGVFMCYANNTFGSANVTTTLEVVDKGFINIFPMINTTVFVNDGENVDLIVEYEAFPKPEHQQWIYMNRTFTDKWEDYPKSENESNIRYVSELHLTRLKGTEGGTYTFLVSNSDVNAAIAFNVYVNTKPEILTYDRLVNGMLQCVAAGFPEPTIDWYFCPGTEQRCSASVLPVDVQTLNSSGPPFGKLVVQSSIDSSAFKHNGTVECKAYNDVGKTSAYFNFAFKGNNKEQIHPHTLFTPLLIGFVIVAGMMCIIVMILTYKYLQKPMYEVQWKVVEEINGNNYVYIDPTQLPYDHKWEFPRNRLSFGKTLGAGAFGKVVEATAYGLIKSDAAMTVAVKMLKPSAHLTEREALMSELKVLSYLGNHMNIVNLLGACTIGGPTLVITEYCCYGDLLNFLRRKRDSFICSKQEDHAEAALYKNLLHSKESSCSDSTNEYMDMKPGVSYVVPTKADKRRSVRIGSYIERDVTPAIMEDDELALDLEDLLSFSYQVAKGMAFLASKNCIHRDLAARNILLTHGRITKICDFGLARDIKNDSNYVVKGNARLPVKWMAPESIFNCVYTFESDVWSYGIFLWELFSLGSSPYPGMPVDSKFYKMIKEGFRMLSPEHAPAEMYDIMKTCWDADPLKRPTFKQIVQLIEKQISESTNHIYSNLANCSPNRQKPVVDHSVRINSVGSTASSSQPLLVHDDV
Receptor tyrosine-protein kinase erbB-2, sequence (P04626 whole entry): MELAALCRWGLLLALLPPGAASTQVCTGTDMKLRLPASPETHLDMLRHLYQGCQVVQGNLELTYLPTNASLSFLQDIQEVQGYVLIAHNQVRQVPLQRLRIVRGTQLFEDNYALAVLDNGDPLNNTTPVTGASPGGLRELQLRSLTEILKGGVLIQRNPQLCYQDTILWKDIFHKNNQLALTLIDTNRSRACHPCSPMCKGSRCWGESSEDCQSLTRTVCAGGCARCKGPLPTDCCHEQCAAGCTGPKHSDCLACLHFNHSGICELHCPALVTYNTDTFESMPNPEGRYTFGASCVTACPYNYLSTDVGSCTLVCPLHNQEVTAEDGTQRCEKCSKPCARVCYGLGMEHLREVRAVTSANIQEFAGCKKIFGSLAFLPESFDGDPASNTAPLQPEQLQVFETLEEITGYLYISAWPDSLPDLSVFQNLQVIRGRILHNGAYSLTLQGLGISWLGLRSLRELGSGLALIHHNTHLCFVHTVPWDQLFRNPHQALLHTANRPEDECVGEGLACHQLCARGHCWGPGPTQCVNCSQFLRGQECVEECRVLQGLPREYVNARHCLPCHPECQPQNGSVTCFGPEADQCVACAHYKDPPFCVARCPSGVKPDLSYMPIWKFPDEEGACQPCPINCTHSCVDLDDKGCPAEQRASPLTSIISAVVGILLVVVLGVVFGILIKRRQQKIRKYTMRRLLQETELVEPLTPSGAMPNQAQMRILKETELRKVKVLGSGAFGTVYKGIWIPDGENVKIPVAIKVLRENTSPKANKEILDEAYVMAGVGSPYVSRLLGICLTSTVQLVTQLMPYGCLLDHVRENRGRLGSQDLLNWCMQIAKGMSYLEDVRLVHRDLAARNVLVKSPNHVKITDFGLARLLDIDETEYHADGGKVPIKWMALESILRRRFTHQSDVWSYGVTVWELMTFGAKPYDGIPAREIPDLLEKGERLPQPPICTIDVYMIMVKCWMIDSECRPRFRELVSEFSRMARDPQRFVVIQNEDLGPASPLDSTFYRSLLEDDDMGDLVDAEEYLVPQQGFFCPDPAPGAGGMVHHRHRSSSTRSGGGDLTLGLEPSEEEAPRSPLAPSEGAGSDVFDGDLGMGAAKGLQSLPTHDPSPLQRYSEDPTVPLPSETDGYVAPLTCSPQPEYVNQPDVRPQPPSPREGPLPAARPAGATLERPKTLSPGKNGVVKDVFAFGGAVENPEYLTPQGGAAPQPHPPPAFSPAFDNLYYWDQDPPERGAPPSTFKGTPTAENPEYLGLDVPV
Tyrosine-protein kinase Yes, sequence (P07947 whole entry): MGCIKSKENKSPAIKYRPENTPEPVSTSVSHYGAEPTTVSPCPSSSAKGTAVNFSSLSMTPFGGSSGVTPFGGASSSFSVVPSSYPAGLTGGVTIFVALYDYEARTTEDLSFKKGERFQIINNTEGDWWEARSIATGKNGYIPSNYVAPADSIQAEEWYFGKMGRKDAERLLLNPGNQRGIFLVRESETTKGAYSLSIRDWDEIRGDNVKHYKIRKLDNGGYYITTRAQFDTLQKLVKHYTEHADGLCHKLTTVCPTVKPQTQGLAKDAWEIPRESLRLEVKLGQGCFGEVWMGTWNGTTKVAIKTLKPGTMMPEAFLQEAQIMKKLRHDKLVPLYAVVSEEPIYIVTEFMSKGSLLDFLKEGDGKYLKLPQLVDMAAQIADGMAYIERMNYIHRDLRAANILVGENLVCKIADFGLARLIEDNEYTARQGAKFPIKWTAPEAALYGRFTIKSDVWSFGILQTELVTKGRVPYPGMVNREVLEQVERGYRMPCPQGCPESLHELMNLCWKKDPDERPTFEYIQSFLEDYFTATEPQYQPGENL
Serine/threonine-protein kinase pim-1, sequence (P11309 whole entry): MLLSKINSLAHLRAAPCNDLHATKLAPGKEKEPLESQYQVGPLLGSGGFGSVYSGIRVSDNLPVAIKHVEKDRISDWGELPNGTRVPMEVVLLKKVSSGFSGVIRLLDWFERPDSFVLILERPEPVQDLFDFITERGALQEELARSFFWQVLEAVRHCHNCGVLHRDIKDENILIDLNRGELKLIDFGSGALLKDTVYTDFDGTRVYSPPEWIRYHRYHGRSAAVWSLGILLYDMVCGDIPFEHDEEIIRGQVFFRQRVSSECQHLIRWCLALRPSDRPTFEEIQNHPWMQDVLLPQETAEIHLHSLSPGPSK

C#Cc1cccc(Nc2ncnc3cc(OCCOC)c(OCCOC)cc23)c1 [ERLOTINIB]
Not Active: [1] | [2] | [3] | [4] | [5] | [6] | [7] | [8] | [9] | [10] | [11]

Cc1ccc(NC(=O)c2ccc(CN3CCN(C)CC3)cc2)cc1Nc1nccc(-c2cccnc2)n1 [IMATINIB]
Not Active: [2] | [3] | [4] | [12] | [5] | [6] | [7] | [8] | [9] | [13] | [14] | [10] | [11]

O=c1ncn2nc(Sc3ccc(F)cc3F)ccc2c1-c1c(Cl)cccc1Cl [NEFLAMAPIMOD]
Not Active: [1] | [2] | [4] | [12] | [5] | [6] | [7] | [13] | [14] | [10] | [11]

CCOc1cc2ncc(C#N)c(Nc3ccc(F)c(Cl)c3)c2cc1NC(=O)/C=C/CN(C)C [PELITINIB]
Not Active: [1] | [2] | [4] | [5] | [7] | [8] | [14] | [10]

Oc1ccc(-c2nc(-c3ccc(F)cc3)c(-c3ccncc3)[nH]2)cc1 [SB-202190]
Not Active: [1] | [2] | [3] | [4] | [12] | [5] | [6] | [7] | [8] | [9] | [13] | [14] | [10] | [11]

C[S+]([O-])c1ccc(-c2nc(-c3ccc(F)cc3)c(-c3ccncc3)[nH]2)cc1 (centres undefined) [SB-203580]
Not Active: [1] | [2] | [3] | [4] | [12] | [5] | [6] | [7] | [8] | [9] | [13] | [14] | [10] | [11]

CC[C@H](CO)Nc1nc(NCc2ccccc2)c2ncn(C(C)C)c2n1 [SELICICLIB]
Not Active: [1] | [2] | [3] | [4] | [12] | [5] | [6] | [7] | [8] | [9] | [13] | [14] | [10] | [11]

Oc1c2ccccc2c2c3c(cccc13)N=N2 [SP-600125]
Not Active: [1] | [2] | [3] | [4] | [12] | [5] | [7] | [8] | [9] | [10] | [11]

COc1cc2c(N3CCN(C(=O)Nc4ccc(OC(C)C)cc4)CC3)ncnc2cc1OCCCN1CCCCC1 [TANDUTINIB]
Not Active: [2] | [3] | [4] | [12] | [5] | [6] | [7] | [8] | [9] | [13] | [14] | [10] | [11]
